As for `COc1ccc(-c2cc(C(F)F)nn2-c2ccc(S(N)(=O)=O)cc2)cc1I` [Example 6, 4-[3-(Difluoromethyl)-5-(3-iodo-4-methoxyphenyl)-1H-pyrazol-1-yl]benzenesulfonamide], the melting point is 184.2 to 188.4 °C.

Compound `COc1ccc(-c2cc(CO)nn2-c2ccc(S(N)(=O)=O)cc2)cc1I` [Example 5, 4-[3-(Hydroxymethyl)-5-(3-iodo-4-methoxyphenyl)-1H-pyrazol-1-yl]benzenesulfonamide] displayed a melting point of 192.3 to 193.3 °C.

In turn, `COc1ccc(-c2cc(C(F)(F)F)nn2-c2ccc(S(N)(=O)=O)cc2)cc1I` [Example 7, 4-[5-(3-Iodo-4-methoxyphenyl)-3-trifluoromethyl-1H-pyrazol-1-yl]benzenesulfonamide] yielded a melting point of 183.1 to 185.6 °C.
